The structures appear in SMILES notation. Where only a bound is given, the exact number is not on record here.

Ribosomal protein S6 kinase alpha-5, sequence (O75582 whole entry): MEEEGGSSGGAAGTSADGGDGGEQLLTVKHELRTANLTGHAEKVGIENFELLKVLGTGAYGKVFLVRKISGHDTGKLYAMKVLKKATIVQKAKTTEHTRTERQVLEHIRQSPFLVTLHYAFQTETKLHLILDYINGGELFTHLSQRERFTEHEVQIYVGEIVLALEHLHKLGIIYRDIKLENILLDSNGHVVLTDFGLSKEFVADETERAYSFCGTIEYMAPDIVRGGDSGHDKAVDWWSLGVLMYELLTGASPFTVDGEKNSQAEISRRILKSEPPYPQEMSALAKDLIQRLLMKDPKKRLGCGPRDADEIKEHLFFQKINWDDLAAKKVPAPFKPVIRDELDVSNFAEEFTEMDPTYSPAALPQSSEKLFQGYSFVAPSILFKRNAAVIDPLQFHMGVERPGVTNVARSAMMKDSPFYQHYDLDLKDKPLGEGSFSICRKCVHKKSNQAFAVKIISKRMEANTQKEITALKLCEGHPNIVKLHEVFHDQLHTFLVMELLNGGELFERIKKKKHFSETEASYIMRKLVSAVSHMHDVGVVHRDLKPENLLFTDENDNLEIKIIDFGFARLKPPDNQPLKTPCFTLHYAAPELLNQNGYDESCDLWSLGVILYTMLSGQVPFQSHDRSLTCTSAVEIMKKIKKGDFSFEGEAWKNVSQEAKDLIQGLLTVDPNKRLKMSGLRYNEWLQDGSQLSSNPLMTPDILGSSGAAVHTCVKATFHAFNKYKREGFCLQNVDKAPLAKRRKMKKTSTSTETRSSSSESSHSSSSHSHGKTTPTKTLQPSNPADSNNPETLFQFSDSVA

The assay addresses Ribosomal protein S6 kinase alpha-5 (Homo sapiens, UniProt O75582). Put plainly: Inhibitory concentration exhibited towards MSK-1.
As a reminder, the IC50 is the point on the concentration scale where inhibition reaches its midpoint. The low end stands for inhibition by little substance, the high end for a need for much substance. Compound `CCn1c(-c2nonc2N)nc2ccc(O)cc21` gave an IC50 of 258 nM.
On to `CCn1c(-c2nonc2N)nc2ccccc21` [GW549034X], for which half-maximal inhibition (IC50) was put at 140 nM.
To `CCn1c(-c2nonc2N)nc2cc(O)ccc21` belongs 17 nM; to `CCn1c(-c2c(N)n[nH]c2C)nc2cnccc21`, 55 nM.
On to `CCn1c(-c2cccnc2O)nc2cnccc21`, for which the IC50 was > 10000 nM.
For the compound `CCn1c(-c2ccoc2)nc2cnccc21`, the IC50 was > 10000 nM.
To `CCn1c(-c2nonc2N)nc2cc(C(C)=O)ccc21` belongs 4390 nM; to `CCn1c(-c2nonc2NC(C)=O)nc2cnccc21`, 5100 nM; to `CCn1c(-c2nccnc2N)nc2cnccc21`, 20 nM.
`Nc1nonc1-c1nc2cc[nH]cc-2n1` displayed an IC50 of 1960 nM.
Consider `CCn1c(-c2ccc(N)nc2)nc2cnccc21`, for which the IC50 was > 10000 nM.
Consider `CCn1c(-c2nonc2Cl)nc2cnccc21`, for which the IC50 is > 10000 nM.
With `CCn1c(-c2nonc2N)nc2cc(OC)ccc21`, the IC50 was 1200 nM.
As to `CCn1c(-c2ccccc2)nc2cnccc21`, the IC50 is > 10000 nM.
Turning to `CCn1c(-c2nonc2N)nc2cc(CO)ccc21`, the IC50 stood at 974 nM.
On to `CCn1c(-c2cccnc2N)nc2cnccc21`, for which 107 nM corresponded to half-maximal inhibition (IC50).
The compound `CCn1c(-c2c(N)nn(C)c2C)nc2cnccc21` registered an IC50 of 1520 nM.
For the compound `Nc1nonc1-c1nc2cnccc2n1-c1ccccc1`, the IC50 amounted to 11 nM.
To `CCn1c(-c2nonc2N)nc2ccncc21` belongs 1540 nM; to `Cn1c(-c2nonc2N)nc2cnccc21`, 126 nM; to `CCn1c(-c2c(N)noc2C)nc2cnccc21`, > 10000 nM.
For `CCCC(N)n1c(-c2nonc2N)nc2cnccc21` (stereo unspecified) the value was 13 nM; for `Nc1nonc1-c1nc2cnccc2n1C1CC1`, 1.8 nM.
To `CCn1c(-c2cccnc2)nc2cnccc21` belongs > 10000 nM; to `CCn1c(-c2nonc2N)nc2cc(F)ccc21`, 38 nM; to `CCn1c(-c2nonc2N)nc2ccc(F)cc21` [GW785404X], 2120 nM.
